Results reported in ChEMBL document CHEMBL5346909, “Korupensamine A, but not its atropisomer, korupensamine B, inhibits SARS-CoV-2 in vitro by targeting its main protease (Mpro)” (Eur J Med Chem, 2023).

Key:
[1] = molecular target: T1, Replicase polyprotein 1ab (Severe acute respiratory syndrome coronavirus 2, UniProt P0DTD1); experiment: Binding affinity to SARS CoV-2 main protease assessed as inhibition constant
SARS-CoV-2 = experiment: Antiviral activity against SARS-CoV-2 infected in African green monkey Vero cells assessed as inhibition of viral replication measured after 24 hrs post infection by qRT-PCR analysis; assay type: functional, organism-based; settings: Severe acute respiratory syndrome coronavirus 2, Vero
[2] = Cytotoxicity against African green monkey Vero cells incubated for 3 days by automatic cell counting method; assay type: toxicity, cell-based; settings: chlorocebus sabaeus, time 3 day
[3] = molecular target: T1, Replicase polyprotein 1ab; experiment: Inhibition of SARS CoV-2 main protease

| Compound | Ki [1] [µM] | EC50 (SARS-CoV-2) [µM] | CC50 at 72 h [2] [µM] | IC50 [3] [µM] |
| --- | --- | --- | --- | --- |
| COc1cc(C)cc2c(-c3c(O)cc(O)c4c3C[C@@H](C)N[C@@H]4C)ccc(O)c12 (stereo in doubt; 1a) [KORUPENSAMINE A] | 1.42 | 4.23 | 35.1 | 2.52 |
| COc1cc(C)cc2c(-c3c(O)cc(O)c4c3C[C@@H](C)N[C@@H]4C)ccc(O)c12 (stereo in doubt; 1b) [KORUPENSAMINE A] | – | – | – | 71.9 |
